The text below walks through data of patent publication US20060079453A1, “Hla binding peptides and their uses” (priority 2002, published 2006).

Read-outs that look alike come from different tables or passages of the source. No end group written: not given here.

What all share (assay): biochemical
Assay type in all cases: binding

Test [1] concerns the target HLA-DR DRB1*0301 (DR3) (Homo sapiens, UniProt P01903+P01911, A100K/A102G/A103R/A169T/F55Y/I96L/K41T/L162R/M171V/P40S/Q125H/Q178H/Q39Y/R42S/S66N/T106N/T262R/W38E/Y61H).
Test [2] deals with HLA-DR DRB1*0401 (DR4) (Homo sapiens, UniProt P01903+P01911, A100K/A169T/F76Y/I96L/K127E/L162R/M171V/N62H/P40V/Q125Y/R42H/S133A/S149N/S66Y/V115G/V209L/W38E).
Test [3] deals with HLA-DR DRB1*0405 (DR4) (Homo sapiens, UniProt P01903+P01911, A100R/A169T/D86S/F76Y/I96L/K127E/L162R/M171V/N62H/P40V/Q125Y/R42H/S133A/S149N/S66Y/V115G/V209L/W38E).
The target in test [4] is HLA-DR DRB1*0802 (DR8) (Homo sapiens, UniProt P01903+P01911, A100R/A103L/A169T/F76Y/H45Y/I96F/K41T/L162R/M171V/P40S/Q125H/Q178H/Q39Y/Q99D/R218S/R42G/S66Y/V115G/W38E).
Test [5] has as its target HLA-DR DRB1*0101 (DR1) (Homo sapiens, UniProt P01903+P01911, A100R/D57E/F55L/F60I/F76Y/I96L/L162R/M171V/P40L/Q125E/R42F/V115G/Y59C).
The target in test [6] is HLA-DR DRB1*0701 (DR7) (Homo sapiens, UniProt P01903+P01911, A100R/A102G/A103Q/D57E/D86V/E43K/F76Y/K127E/L162R/M171V/P40G/Q125H/Q99D/R33Q/R42Y/R54Q/S133A/S66F/T210M/V115G/Y107V/Y59L/Y89S).
Test [7] deals with HLA-DR DRB1*0901 (DR9) (Homo sapiens, UniProt P01903+P01911, A100R/A103E/D57H/D86V/F55Y/F60I/F76Y/I96F/K127E/L162R/M171V/P40D/Q125H/Q99R/R33Q/R42F/S133A/S66N/T210M/V115G/W38K/Y107V/Y59G/Y89S). The note with it: DRB1 *0901.
The target of test [8] is HLA-DR DRB1*1101 (DR11) (Homo sapiens, UniProt P01903+P01911, A100R/A169T/A87E/I96F/K41T/L162R/M171V/P40S/Q125H/Q178H/Q39Y/Q99D/R42S/S66Y/T262R/V115G/W38E). The note with it: DRB1 *1101.
The target of test [9] is HLA-DR DRB1*1302 (DR13) (Homo sapiens, UniProt P01903+P01911, A100E/A169T/K41T/L162R/M171V/P40S/Q125H/Q178H/Q39Y/Q99D/R42S/S66N/T262R/V115G/W38E/Y61H). Particulars: DRBI *1302.
In test [10] the target is HLA-DR DRB1*1501 (DR15) (Homo sapiens, UniProt P01903+P01911).
Test [11] has as its target HLA-DR DRB4*0101 (DR53) (Homo sapiens, UniProt P01903+P13762, G164S).
In test [12] the target is HLA-DR DRB5*0101 (DR51) (Homo sapiens, UniProt P01903+Q30154). Particulars: DRB5 *0101.

Chain of HLA-DR DRB1*1101 (DR11) (P01903 26-254 limits assumed, other chains not shown): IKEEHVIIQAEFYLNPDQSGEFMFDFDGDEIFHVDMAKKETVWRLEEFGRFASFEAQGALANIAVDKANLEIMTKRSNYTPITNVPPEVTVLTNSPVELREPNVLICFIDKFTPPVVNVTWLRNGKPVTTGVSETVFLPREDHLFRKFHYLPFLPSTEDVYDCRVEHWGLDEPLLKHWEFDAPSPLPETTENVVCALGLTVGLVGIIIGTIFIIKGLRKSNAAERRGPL
Chain of HLA-DR DRB1*0301 (DR3) (P01903 26-254 limits assumed, other chains not shown): as above
Chain of HLA-DR DRB1*1302 (DR13) (P01903 26-254 limits assumed, other chains not shown): as above

Consider ESTGMTPEKVPVSEVMGT, for which the IC50 in [1] (read-out: DRB1 *0301) was above 50 µM; in test [2] (read-out: DRB1 *0401), above 47.4 µM; in [3] (read-out: DRB1 *0405), above 71.4 µM; in test [4] (read-out: DRB1 *0802), above 31.2 µM.
As for LKLVYRDDFPYAVCR, the IC50 in test [5] (DRB1 *0101) came out at 0.778 µM; in test [1], 0.237 µM; in test [2] (DRB1 *0401), 0.123 µM; in [3] (DRB1 *0405) it was 0.83 µM; in [6] (DRB1 *0701), 29 µM; in test [7], 18.7 µM. The IC50 in [8] amounted to 0.698 µM; in test [9] it was 0.699 µM; in [10] (DRBI *1501) it was 1.88 µM; in test [11] (DRB4 *0101), 3.83 µM; in test [12], 9.16 µM.
Take VCLLFYSKVRKYRYY: the IC50 came out at 0.96 µM in [5] (DRB1 *0101); 0.276 µM in test [1]; 0.073 µM in test [3] (DRB1 *0405); 0.258 µM in [6] (DRB1 *0701); 1.8 µM in test [7]; 0.326 µM in [8]. The figures for the IC50 in test [10] (DRBI *1501) and in test [11] (DRB4 *0101) were 0.061 µM and 2.34 µM, respectively.
Take YGRILHYLKAKEDSH: the IC50 in [5] (DRB1 *0101) was determined as 0.03 µM; in test [1] it was 42.4 µM; in [2] (DRB1 *0401), 2.34 µM; in test [3] (DRB1 *0405), 0.023 µM; in test [6] (DRB1 *0701), 0.9 µM; in [4], 0.704 µM.
With WAGLLLDTRTLEVQS, the IC50 is 2.02 µM in [5] (DRB1 *0101); 0.022 µM in test [1]; 0.049 µM in test [2] (DRB1 *0401); 1.24 µM in [3] (DRB1 *0405); above 61.2 µM in [4]; 21 µM in test [8]. Further, the values for the IC50 in [9], in [10] (DRBI *1501) and in test [12] were 0.092 µM, 3.47 µM and above 102 µM, respectively.
LRTLQQMLLGTLQVV: the IC50 in test [5] (DRB1 *0101) is 0.08 µM; in [1], above 3750 µM; in [2] (DRB1 *0401), 0.437 µM; in test [3] (DRB1 *0405) it was 0.079 µM; in [6] (DRB1 *0701) it was 6.91 µM; in test [7] it was 5.08 µM. Moreover, the IC50 in [8] was 0.907 µM; in test [9], 0.616 µM; in [10] (DRBI *1501) it was 1.7 µM; in test [11] (DRB4 *0101), 0.088 µM; in [12], above 46.6 µM.
RTSIRASLTFNRGFK: the IC50 in test [1] was 0.256 µM; in test [2] (DRB1 *0401) it was 0.77 µM; in test [3] (DRB1 *0405) it was 5.13 µM; in [6] (DRB1 *0701) it was 0.411 µM; in test [4], 5.48 µM; in test [8] it was 4.81 µM. The compound also displayed an IC50 in test [11] (DRB4 *0101) of 0.079 µM.
As to MKHILYISFYFILVN, the IC50 in [5] (DRB1 *0101) was 5.89 µM; in test [2] (DRB1 *0401), 0.189 µM; in test [3] (DRB1 *0405), 3.38 µM; in test [4] it was 15.6 µM; in [12], above 9.52 µM.
For `CC[C@H](C)[C@H](NC(=O)[C@H](Cc1ccc(O)cc1)NC(=O)[C@@H]1CCCN1C(=O)[C@H](CC(=O)O)NC(=O)[C@H](CCC(=O)O)NC(=O)[C@H](CC(C)C)NC(=O)[C@@H](NC(=O)[C@H](C)NC(=O)[C@@H](N)CCC(=O)O)C(C)C)C(=O)N[C@@H](CC(C)C)C(=O)N[C@@H](CC(C)C)C(=O)N[C@H](C(=O)N[C@@H](CO)C(=O)N[C@@H](CO)C(=O)N[C@@H](CCCCN)C(=O)O)C(C)C`, the IC50 in test [5] (DRB1 *0101) is 0.034 µM; in [1], 0.479 µM; in [2] (DRB1 *0401) it was 0.233 µM; in test [3] (DRB1 *0405), 0.681 µM; in [7], 15 µM; in test [8], 4.38 µM. Besides, the IC50 in test [9] is above 10.3 µM; in test [10], above 50.8 µM; in test [11], above 26.4 µM.
With GIVEQTTTSITSLYQ, the IC50 was 6.35 µM in test [5] (DRB1 *0101); 107 µM in test [1]; 0.121 µM in test [2] (DRB1 *0401); 0.818 µM in [3] (DRB1 *0405); 0.788 µM in [6] (DRB1 *0701); above 54.4 µM in test [4].
Regarding RVIKNSIRLTL, the IC50 in [5] (DRB1 *0101) stood at 3.65 µM; in [1], 0.584 µM; in test [2] (DRB1 *0401) it was 9.25 µM; in test [3] (DRB1 *0405) it was 80.7 µM; in test [6] (DRB1 *0701), 2.24 µM; in test [7], 2.57 µM. Further, the IC50 in [8] turned out to be 1.74 µM; in [9], 0.032 µM; in test [10] (DRBI *1501) it was 4.32 µM; in [12], 8.83 µM.
As for CYSLYGTTLEQQYNK, the IC50 in test [5] (DRB1 *0101) is 1.09 µM; in test [3] (DRB1 *0405), 0.071 µM; in test [6] (DRB1 *0701) it was above 9.96 µM; in test [4] it was 26 µM; in test [8], above 14.7 µM; in [9], above 13.7 µM. The IC50 in [10] (DRBI *1501) is 5.06 µM; in [11] (DRB4 *0101) it was 0.189 µM; in test [12] it was above 10.7 µM.
As to ALIYNYGLLYCFRKD, the IC50 in test [5] (read-out: DRB1 *0101) was 0.137 µM; in test [1] (read-out: DRB1 *0301), 9.82 µM; in test [3] (read-out: DRB1 *0405) it was 0.551 µM; in test [4] (read-out: DRB1 *0802), above 33.3 µM.
Turning to `CC(C)C[C@H](NC(=O)[C@H](C)NC(=O)[C@H](Cc1ccccc1)NC(=O)[C@@H](N)[C@@H](C)O)C(=O)N[C@@H](Cc1c[nH]c2ccccc12)C(=O)N[C@@H](CCCNC(=N)N)C(=O)N[C@H](C(=O)N[C@@H](CO)C(=O)N[C@@H](C)C(=O)N[C@@H](CCC(=O)O)C(=O)N[C@@H](CCC(=O)O)C(=O)N[C@@H](Cc1ccc(O)cc1)C(=O)O)C(C)C`, the IC50 in test [5] (DRB1 *0101) is above 5.28 µM; in [1], 88.3 µM; in [2] (DRB1 *0401), 0.342 µM; in test [3] (DRB1 *0405), 0.072 µM; in [6] (DRB1 *0701) it was 0.927 µM; in [7], 0.517 µM. Further, the IC50 was 0.342 µM in [8]; above 2.57 µM in [9]; above 12.7 µM in test [10] (DRBI *1501); above 6.61 µM in test [11] (DRB4 *0101); 25.5 µM in [12].
Regarding PVIKNSIKLRL, the IC50 in [5] (DRB1 *0101) worked out at 1.55 µM; in [1], 0.198 µM; in [2] (DRB1 *0401), 34.2 µM; in [3] (DRB1 *0405) it was 278 µM; in test [6] (DRB1 *0701), 4.09 µM; in test [7], 2.85 µM. In addition, the IC50 was 2.77 µM in test [8]; 0.077 µM in test [9]; 2.58 µM in [10] (DRBI *1501); 0.198 µM in test [11] (DRB4 *0101); 1.04 µM in [12].
On to FAGIRRDGLLLRLVD, for which the IC50 in test [1] (read-out: DRB1 *0301) was 0.0036 µM; in test [2] (read-out: DRB1 *0401), 7.09 µM; in test [3] (read-out: DRB1 *0405), above 3.37 µM; in [6] (read-out: DRB1 *0701) it was 41.1 µM; in test [4] (read-out: DRB1 *0802), 7.65 µM.
As to `CC[C@H](C)[C@H](NC(=O)[C@@H](NC(=O)[C@H](CC(C)C)NC(=O)[C@H](CC(=O)O)NC(=O)[C@@H](NC(=O)[C@H](Cc1ccccc1)NC(=O)[C@H](C)NC(=O)[C@H](Cc1ccccc1)NC(=O)[C@H](CC(=O)O)NC(=O)[C@H](CC(C)C)NC(=O)[C@@H](N)C(C)C)[C@@H](C)O)[C@@H](C)O)C(=O)N[C@H](C(=O)N[C@@H](Cc1ccc(O)cc1)C(=O)N[C@@H](CCCNC(=N)N)C(=O)N[C@@H](CC(=O)O)C(=O)O)C(C)C`, the IC50 in test [5] (DRB1 *0101) came to 0.354 µM; in test [1], 0.03 µM; in test [3] (DRB1 *0405) it was 0.721 µM; in test [6] (DRB1 *0701), 0.23 µM; in test [7] it was 0.252 µM; in test [8], 7.47 µM. Besides, the IC50 in test [9] was 3.1 µM; in test [10] (DRBI *1501) it was 0.645 µM; in test [11] (DRB4 *0101), 11.3 µM; in test [12] it was 14.8 µM.
